According to patent US11020360B2, “Methods, compounds, compositions and vehicles for delivering 3-amino-1-propanesulfonic acid” (Bellus Health, Inc., priority 2006, dated 2021):
Where “and” joins values, the source holds several entries; their conditions need not be identical. Equal values may be shown once. Where a name gives a salt, the structure may show the parent alone.

What was measured:
[1] = Metabolic profiling of 14C-3APS in dogs; type: in vivo, male Beagle dogs
Method: (§1) Three single dose studies were conducted in mice, rats and dogs to determine the metabolic profile of ^14C-3APS in plasma, urine and feces. In the first study, twenty-seven male CD-1 mice received a single dose of 100 mg/kg (20 μCi/animal) of ^14C-3APS by oral gavage. Blood samples (3 animals/time point) were collected for 12 hr following drug administration while urine and feces (3 animals/time point) samples were collected for 96 hr. In the second study, eight male Sprague-Dawley rats received a single dose of 100 mg/kg (50 μCi/animal) of ^14C-3APS by oral gavage while in the third study, three male Beagle dogs received a single dose of 100 mg/kg (30 μCi/kg) of ^14C-3APS by oral gavage. For the rat and dog studies, blood samples were collected for 24 hr following drug administration while urine and feces samples were collected for 72 hr. All samples were analyzed for total radioactivity using appropriate sample preparation procedures and scintillation counting. Plasma and urine samples were also analyzed for 3APS and 3APS metabolites (2-carboxyethanesulfonic acid, 3-hydroxy-1-propanesulfonic acid and 3-acetylamino-1-propanesulfonic acid) concentrations using qualified HPLC and MS/MS methods.

[2] = Metabolic profiling of 14C-3APS in rats; type: in vivo, male Sprague-Dawley rats
Method: as §1

[3] = Absorption, excretion and plasma kinetics of 14C-3APS in humans; type: in vivo, human
Description: Following the identification of 3APS metabolites, plasma and urine samples from this human AME study were reanalyzed for 3APS and 3APS metabolite (2-carboxyethanesulfonic acid, 3-hydroxy-1-propanesulfonic acid and 3-acetylamino-1-propanesulfonic acid) concentrations using qualified HPLC and MS/MS methods to determine the metabolic profile of ^14C-3APS in human.

[4] = Metabolic profiling of 14C-3APS in mice; type: in vivo, male CD-1 mice
Method: as §1

[5] = Single oral and IV administration of 14C-3APS to rats; type: in vivo, male Sprague-Dawley rats; details: for AUC0-∞ / AUC(0-inf): 100 mg/kg 14C-3APS, rats, 100 mg/kg; for AUC(0-inf): male, Sprague-Dawley, rat, plasma
Method: The purpose of this study was to investigate the absorption, metabolism and excretion profiles of ^14C-3APS following a single intravenous bolus and oral administration to rats. Thirty-six male Sprague-Dawley rats received a single 100 mg/kg (˜50 μCi/animal) dose of ^14C-3APS by an IV bolus injection (water or isotonic saline solution) and an additional 36 male rats received the same dose level by oral gavage (in water). Blood, urine, feces, brain and CSF samples were collected for up to 72 hr following dose administration. Plasma, urine, brain and CSF concentrations of 3APS and 2-carboxyethanesulfonic acid (3APS major metabolite) were measured using LC and MS/MS detection method. Plasma, urine, feces, brain and CSF samples were analyzed for total radioactivity using appropriate sample preparation procedures and scintillation counting.

[6] = PK brain and plasma levels of oral Compound A2 and 3-APS in mice; type: in vivo; details: oral 0.18 mmol/kg
Method: Compounds A2 and 3-aminopropanesulfonic acid were tested for pharmacokinetic parameters in mice. Parmacokinetic parameters (Cmax, Tmax, T½, AUC) are evaluated for 3APS after administration of a molar equivalent of each compound. Blood samples (approximately 1 ml) and brain samples are collected from each of 3 animals at time points 5, 15, 30 minutes, 1, 2, 4, 6, 12, and 24 hours. […] A 2-fold increase in plasma concentration (Cmax) of 3-APS was observed when orally administering Compound A2 compared to 3-APS.

[7] = Mouse whole blood stability; type: in vitro ADME; details: 37° C.
Method: (§2) Test compounds were incubated for a total of 240 minutes at 37° C. in whole mouse and whole human blood. The compounds were added at time-point 0 and sample aliquots were withdrawn at each time point (usually 0, 60 and 240 minutes). The samples were extracted using protein precipitation. Analysis of extracted samples was achieved using HPLC with MS detection. Several types of HPLC columns and mobile phase were used depending of the polarity of the compound. The compound stability was determined by the % of compound remaining at 240 minutes (peak response of compound at 240 minutes/peak response at 0 minutes×100).

[8] = Bioavailability of exemplary compounds in mice (3APS quantified in plasma); type: in vivo; details: compared with 3APS
Method: Selected exemplary compounds were tested for bioavailability in mice. Bioavailability estimates are performed for 3APS after administration of molar equivalent the selected compounds. […] The animals are anesthetized with isoflurane before blood collection (approximately 45 sec). Samples are collected at 5, 30, 60, 120, 180, 240 and 360 min post intravenous administration and at 15, 30, 60, 120, 180, 240 and 360 min post oral administration. One animal is used to obtain a baseline sample (pre-dose sample). Blood samples are collected into Sarstedt™ micro tubes (EDTA KE/1.3 ml), kept on ice until centrifugation at 4° C. at a minimum speed of 3000 rpm (1620 G) for 10 min. Plasma samples are transferred into Eppendorf™ tubes, immediately placed on dry ice and stored at −80° C. Plasma samples are stored frozen at […] pending analysis.
Compounds in mouse plasma are extracted using protein precipitation. Quantitation of 3APS in mouse plasma matrix is achieved using LC-MS detection. Sample concentration is calculated using a calibration curve.

[9] = Human whole blood stability; type: in vitro ADME; details: 37° C.
Method: as §2

[10] = Stability in water, at pH 1.5 and PBS; type: physicochemical; details: 37° C., 60 min
Method: Stability of exemplary compounds was determined in water, aqueous acidic solution (pH 1.5, HCl) and PBS (phosphate buffered saline) solution using ESI-MS (electrospray ionization mass spectrometry) as the detecting instruments. In general a 2 μg/mL pro-drug solution containing 1 μg/ml IS (internal standard) was prepared and incubated for 60 min. For water stability the incubation was performed at room temperature and for stability in acidic solution and in buffer. The incubation temperature was 37° C. Samples were analyzed for prodrug content at time points 0 and 60 min. using MS. The % changes in peak area ratio after 60 minutes for each test compound tested are calculated using the average values from six replicate runs. The compounds tested included Compounds A1 to A19, Compounds B5 and B6 and Compounds C1 to C26. Except for C26 which was found unstable at pH 1.5 and in PBS, all other compounds were judged to be stable under all conditions tested with less than about 15%-20% concentration change after 60 minutes.

[11] = system: primary rat neuron culture; assay: In vitro metabolism of 3APS in primary rat neuron culture; type: in vitro ADME; details: primary neuron culture media
Method: The metabolism of 3APS was also studied in vitro in different types of cellular models. In some cases, the metabolism of 3APS was compared with that of γ-amino butyric acid (GABA).
The conversion of 3APS to 2-carboxyethanesulfonic acid was time-dependent and cell concentration-dependent. Incubation of 3APS (400 μM initial concentration) for six days in the cell culture media (containing 800,000 cells) produced with 48 μM of 2-carboxyethanesulfonic acid. Under the same experimental conditions, 5.4 μM succinic acid was detected starting from GABA (400 μM initial concentration).

[12] = Rat plasma, analyte after single oral 100 mg/kg 14C-3APS
[13] = male, Sprague-Dawley, rat, plasma, po, 100 mg/kg, Rat plasma, analyte after single oral 100 mg/kg 14C-3APS
[14] = Mouse plasma, analyte after single oral 100 mg/kg 14C-3APS
[15] = male, CD-1, mouse, plasma, po, 100 mg/kg, Mouse plasma, analyte after single oral 100 mg/kg 14C-3APS
[16] = IV, individual animals 1001-1004
[17] = PO, individual animals 3001-3004
[18] = Dog plasma, single oral 100 mg/kg 14C-3APS
[19] = Rat plasma, single oral 100 mg/kg 14C-3APS
[20] = Mouse plasma, single oral 100 mg/kg 14C-3APS

O=C(O)CCS(=O)(=O)O [2-carboxyethanesulfonic acid]
AUC0-τ ([1]; Dog plasma, analyte after single oral 100 mg/kg 14C-3APS): 30.5 µmol·min/mL | % of Total Radioactivity, Urine ([1]; Dog, amount excreted, single oral 100 mg/kg 14C-3APS, 100 mg/kg): 77% | Tmax ([1]; male, Beagle, dog, plasma, po, 100 mg/kg, Dog plasma, analyte after single oral 100 mg/kg 14C-3APS): 12 h | Cmax ([1]; male, Beagle, Dog plasma, analyte (3APS or metabolite) after single oral 100 mg/kg 14C-3APS): 31.2 µM | AUC0-τ [2, 12]: 12.7 µmol·min/mL | AUC∞ [2, 12]: 13.6 µmol·min/mL | T1/2 ([2]; Rat plasma, analyte after single oral 100 mg/kg 14C-3APS, 100 mg/kg): 3.99 h | % of Total Radioactivity, Plasma ([2]; Rat, AUC0-∞ analyte/AUC total radioactivity, single oral 100 mg/kg 14C-3APS): 30% | % of Total Radioactivity, Urine ([2]; Rat, amount excreted, single oral 100 mg/kg 14C-3APS): 62% | Tmax [2, 13]: 4 h | half-life [2, 13]: ~4 h | Cmax ([2]; male, Sprague-Dawley, Rat plasma, analyte (3APS or metabolite) after single oral 100 mg/kg 14C-3APS): 23.4 µM | time of maximum plasma concentration ([3]; healthy subjects, analyte after oral 14C-3APS): 6.5 h | % of total radioactivity in plasma based on AUC0-τ ([3]; healthy subjects, oral 14C-3APS): 49% | % of total amount of radioactivity excreted in urine ([3]; human urine): 79% | AUC0-τ [4, 14]: 7.26 µmol·min/mL | AUC∞ [4, 14]: 7.56 µmol·min/mL | % of Total Radioactivity, Plasma ([4]; Mouse, AUC0-∞ analyte/AUC total radioactivity, single oral 100 mg/kg 14C-3APS): 30% | % of Total Radioactivity, Urine ([4]; Mouse, amount excreted, single oral 100 mg/kg 14C-3APS, 100 mg/kg): 62% | Tmax [4, 15]: 2 h | half-life [4, 15]: ~2 h | Cmax ([4]; male, CD-1, Mouse plasma, analyte (3APS or metabolite) after single oral 100 mg/kg 14C-3APS): 18 µM | AUC0-∞ [5, 16]: 144 µM·h and 184 µM·h and 125 µM·h | % of total radioactivity (AUC0-∞ analyte/AUC total radioactivity) [5, 16]: 6.5% and 9.1% and 9.8% and 9.9% | AUC0-∞ [5, 17]: 153 µM·h and 177 µM·h and 229 µM·h | % of total radioactivity (AUC0-∞ analyte/AUC total radioactivity) [5, 17]: 26.5% and 21.4% and 28.2% and 29.3% | AUC(0-inf) ([5]; iv, Mean): 140 µM·h | AUC(0-inf) ([5]; iv, individual animals 1001-1004): 105 µM·h | AUC(0-inf) ([5]; po, Mean): 198 µM·h | AUC(0-inf) ([5]; po, individual animals 3001-3004): 232 µM·h

CC(C)[C@H](N)C(=O)NCCCS(=O)(=O)O [Compound A2]
Brain concentration of 3-APS [6]: observed | Blood stability (% of compound remaining after 240 min.) Mouse Blood [7]: ++ (++: 30-75%) | effect on bioavailability of 3APS [8]: increasing the bioavailability of 3APS

NCCCC[C@H](N)C(=O)NCCCS(=O)(=O)O [Compound A4]
Blood stability (% of compound remaining after 240 min.) Mouse Blood [7]: +++ (+++: >75%) | effect on bioavailability of 3APS [8]: increasing the bioavailability of 3APS | Blood stability (% of compound remaining after 240 min.) Human Blood [9]: + (+: <30%)

N[C@@H](CO)C(=O)NCCCS(=O)(=O)O [Compound A7]
Blood stability (% of compound remaining after 240 min.) Mouse Blood [7]: +++ (+++: >75%) | effect on bioavailability of 3APS [8]: increasing the bioavailability of 3APS | Blood stability (% of compound remaining after 240 min.) Human Blood [9]: +++ (+++: >75%)

N[C@@H](COCc1ccccc1)C(=O)NCCCS(=O)(=O)O [Compound A18]
Blood stability (% of compound remaining after 240 min.) Mouse Blood [7]: + (+: <30%) | effect on bioavailability of 3APS [8]: increasing the bioavailability of 3APS | Blood stability (% of compound remaining after 240 min.) Human Blood [9]: + (+: <30%)

Cc1oc(=O)oc1COC(=O)NCCCS(=O)(=O)O [Compound C26, 3-({[(5-methyl-2-oxo-1,3-dioxol-4-yl)methoxy]carbonyl}amino)-1-propanesulfonic Acid Sodium Salt]
Stability in PBS [10]: unstable | Stability in aqueous acidic solution (pH 1.5, HCl) [10]: unstable

O=C(CCNNC(=O)c1ccncc1)NCc1ccccc1 [Nialamide]
effect on the conversion of 3APS to 2-carboxyethanesulfonic acid [11]: reduced the formation of 2-carboxyethanesulfonic acid (from 3APS) but to a lesser extent

NCCCS(=O)(=O)O [^14C-3APS]
Total Radioactivity AUC0-τ [1, 18]: 45.4 μmol eq · min/mL | Total Radioactivity AUC∞ [1, 18]: 108 μmol eq · min/mL | % of the dose excreted in urine as total radioactivity ([1]; dog, on average in all species): 60% | Total Radioactivity AUC0-τ [2, 19]: 43.3 μmol eq · min/mL | Total Radioactivity AUC∞ [2, 19]: 45.2 μmol eq · min/mL | % of the dose excreted in urine as total radioactivity ([2]; rat, on average in all species): 60% | Total Radioactivity AUC0-τ [4, 20]: 24.4 μmol eq · min/mL | Total Radioactivity AUC∞ [4, 20]: 25.0 μmol eq · min/mL | % of the dose excreted in urine as total radioactivity ([4]; mouse, on average in all species): 60% | AUC0-∞ Total Radioactivity ([5]; IV, Mean): 1591 nmol eq · h/mL | AUC0-∞ Total Radioactivity [5, 16]: 1625 nmol eq · h/mL and 1588 nmol eq · h/mL and 1883 nmol eq · h/mL and 1266 nmol eq · h/mL | AUC0-∞ Total Radioactivity ([5]; PO, Mean): 749 nmol eq · h/mL | AUC0-∞ Total Radioactivity [5, 17]: 874 nmol eq · h/mL and 714 nmol eq · h/mL and 628 nmol eq · h/mL and 781 nmol eq · h/mL

NCC1(CC(=O)O)CCCCC1 [gabapentin]
effect on the conversion of 3APS to 2-carboxyethanesulfonic acid [11]: no significant effect

C=CC(N)CCC(=O)O (stereo not drawn) [vigabatrin]
effect on the conversion of 3APS to 2-carboxyethanesulfonic acid [11]: significantly inhibited
